# Measured values published in patent US11484598B1, “Pleuromulin rhein ester with anti-drug resistant bacteria activity and a method of preparing the same” (XI'AN KANGYUANSHENG BIOMEDICAL TECHNOLOGY CO., LTD., priority 2021, dated 2022).
# Experiments:
# Format in all cases: cell-based
# [1] = tested on: methicillin-resistant Staphylococcus aureus MRSA 18-575; assay: MIC by microbroth dilution method, MRSA 18-575; settings: for Minimum bacteriostatic concentration: strain MRSA 18-575, 37° C., 20-22 hours
# Method: (§1) The minimal inhibitory concentration (MIC) of the compounds as determined by microbroth dilution method was measured with ceftazidime and vancomycin as positive control.
# (§2) The experimental strains included drug-resistant gram-positive bacteria: methicillin-resistant Staphylococcus aureus MRSA 18-575; drug-resistant gram-negative bacteria: multi-drug-resistant Pseudomonas aeruginosa MDR-PA 18-126, 18-756, Carbapenem-resistant Acinetobacter baumannii CR-AB 18-184, 18-560. The experimental strains were all donated by Huashan Hospital Affiliated to Fudan University (Fudan University Antibiotic Research Institute), and used after being identified by conventional methods.
# (§3) Preparation of MHB medium: 20.0 g NMB medium was added to 1 L distilled water, boiled until completely dissolved, packed in conical bottles and sterilized at 121° C. for 15 min.
# (§4) The experimental strain was cultured to the logarithmic growth phase: under aseptic condition, the experimental strain was inoculated into 100 mL NMB medium and incubated in a constant temperature and humidity incubator at 37° C. for 20-22 hours.
# (§5) Preparation of storage solution: weighing the sample to be tested, dissolving it with 1% DMSO solution, preparing a storage solution with a concentration of 2560 μg/mL, weighing a positive reference substance, dissolving it with aseptic distilled water, and configuring a stock solution with a concentration of 2560 μg/mL.
# (§6) Preparation of bacterial suspension: under aseptic condition, the experimental strains cultured to logarithmic growth phase were adjusted to 0.5 MCF turbidity standard with MHB medium and diluted according to 1:10, and the bacterial suspension with concentration of 10^6 CFU/mL was prepared for standby.
# (§7) Stock solution dilution and inoculation of experimental strains: under aseptic conditions, diluting the stock solution to a solution of 256 μg/mL, taking a sterile 96-well plate, adding 100 μL of MHB medium to each well except for the first and second wells; adding 100 μL of positive control solution to the first well, and adding 100 μL of compound sample solution to the second and third wells; mixing the sample solution in the 3 wells with the medium, and then pipetting 100 μL to the 4th well, and then pipetting 100 μL to the 5th well after mixing, and then diluting to the 9th well in a series of times, and drawing 100 μL from the 9th well and discard, the 10th well is a growth control without drugs; then, adding 100 μL of the above-prepared bacterial suspension to each well to make the final bacterial concentration of each well 5×10^5 CFU/mL; the positive control concentration was 128 μg/mL, the concentrations of the sample solution were 128, 64, 32, 16, 8, 4, 2, 1 μg/mL.
# (§8) Incubation: covering the 96-well plate inoculated with the experimental strains, and incubating in a constant temperature and humidity box at 37° C. for 20-22 hours.
# [2] = tested on: multi-drug-resistant Pseudomonas aeruginosa MDR-PA 18-756; assay: MIC by microbroth dilution method, MDR-PA 18-756; settings: strain MDR-PA 18-756; 37° C., 20-22 hours
# Method: as §1, §2, §3, §4, §5, §6
# as §7, with “μg/mL. […]” for “μg/mL.”
# [3] = tested on: multi-drug-resistant Pseudomonas aeruginosa MDR-PA 18-126; assay: MIC by microbroth dilution method, MDR-PA 18-126; settings: for Minimum bacteriostatic concentration: strain MDR-PA 18-126, 37° C., 20-22 hours
# Method: as §1, §2, §3, §4, §5, §6, §7, §8
# [4] = tested on: Carbapenem-resistant Acinetobacter baumannii CR-AB 18-184; assay: MIC by microbroth dilution method, CR-AB 18-184; settings: for Minimum bacteriostatic concentration: strain CR-AB 18-184, 37° C., 20-22 hours
# Method: as §1, §2, §3, §4, §5, §6, §7, §8
# [5] = tested on: Carbapenem-resistant Acinetobacter baumannii CR-AB 18-560; assay: MIC by microbroth dilution method, CR-AB 18-560; settings: strain CR-AB 18-560; 37° C., 20-22 hours
# Method: as §1, §2, §3, §4, §5, §6
# as §7, with “μg/mL. […]” for “μg/mL.”
# drug-resistant bacteria = assay: Antibacterial activity test, summary over all experimental strains; settings: text summary of FIG. 1-5 and Table 1
# Method: as §1, §2, §3
# The experimental strain was cultured to the logarithmic growth phase: under aseptic condition, the experimental strain was inoculated into 100 mL NMB medium and incubated in a constant temperature and humidity incubator at 37° C. for 20-22 hours. […]
Structure (SMILES),Minimum bacteriostatic concentration [1] [µg/mL],Minimum bacteriostatic concentration [2] [µg/mL],Minimum bacteriostatic concentration [3] [µg/mL],Minimum bacteriostatic concentration [4] [µg/mL],Minimum bacteriostatic concentration [5] [µg/mL],inhibitory effect on drug-resistant bacteria (drug-resistant bacteria),"MIC ([1]; Staphylococcus aureus, MRSA) [µg/mL]","MIC ([3]; Pseudomonas aeruginosa, MDR-PA, strain number not stated (64 matches 18-126)) [µg/mL]","MIC ([4]; Acinetobacter baumannii, CR-AB, strain number not stated (64 matches 18-184)) [µg/mL]"
CC(C)(O/N=C(\C(=O)N[C@@H]1C(=O)N2C(C(=O)[O-])=C(C[n+]3ccccc3)CS[C@H]12)c1csc(N)n1)C(=O)O [Ceftazidime],128,128,128,128,128,,,,
O=C(O)c1cc(O)c2c(c1)C(=O)c1cccc(O)c1C2=O [Rhein],>128,>128,>128,>128,>128,no inhibitory effect,,,
C=C[C@@]1(C)C[C@H](OC(=O)COC(=O)c2cc(O)c3c(c2)C(=O)c2cccc(O)c2C3=O)[C@]2(C)C3C(=O)CC[C@]3(CC[C@@H]2C)[C@H](C)[C@H]1O (some centres unmarked) [Pleuromulin rhein ester],64,>128,64,64,>128,,64,64,64
C=C[C@]1(C)C[C@@H](OC(=O)CO)[C@]2(C)[C@H](C)CC[C@]3(CCC(=O)[C@H]32)[C@@H](C)[C@@H]1O [Pleuromulin],>128,>128,>128,>128,>128,no inhibitory effect,,,
CN[C@H](CC(C)C)C(=O)N[C@H]1C(=O)N[C@@H](CC(N)=O)C(=O)N[C@H]2C(=O)N[C@H]3C(=O)N[C@H](C(=O)N[C@H](C(=O)O)c4cc(O)cc(O)c4-c4cc3ccc4O)[C@H](O)c3ccc(c(Cl)c3)Oc3cc2cc(c3O[C@@H]2O[C@H](CO)[C@@H](O)[C@H](O)[C@H]2O[C@H]2C[C@](C)(N)[C@H](O)[C@H](C)O2)Oc2ccc(cc2Cl)[C@H]1O [Vancomycin],512,,,,,,,,
